# Assay results from patent US20240402196A1 (Exact Sciences Corporation, priority 2018, published 2024).
# Read-outs that look alike come from different tables or passages of the source.
# Target: hemoglobin in stool samples (Homo sapiens, UniProt P68871+P69905)
# Test: Accelerated shipping simulation (35C 16 hour challenge), hemoglobin % recovery by ELISA;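 further: stool hemoglobin measured by ELISA before and after thermal-cycler shipping stress, stability given as percent of pre-stress hemoglobin recovered afterwards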
# Design: from tissue; host or cells: stool samples
# Sequence of hemoglobin in stool samples (P69905 2-142 limits assumed): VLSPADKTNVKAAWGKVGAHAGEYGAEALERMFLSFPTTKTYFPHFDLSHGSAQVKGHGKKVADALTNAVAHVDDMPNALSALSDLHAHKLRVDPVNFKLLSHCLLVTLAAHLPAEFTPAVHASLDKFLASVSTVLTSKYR
# Sequence of hemoglobin in stool samples (P68871 2-147 limits assumed): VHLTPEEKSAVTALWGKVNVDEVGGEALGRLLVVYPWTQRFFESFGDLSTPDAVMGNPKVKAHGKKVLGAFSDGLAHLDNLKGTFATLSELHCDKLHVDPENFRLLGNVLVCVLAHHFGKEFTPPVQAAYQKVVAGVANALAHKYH
compound,measurement,setting,value
C=CC1=C(C)c2cc3[n-]c(cc4nc(cc5[n-]c(cc1n2)c(C)c5C=C)C(C)=C4CCC(=O)O)c(CCC(=O)O)c3C.[Cl-].[Cr+3] [Protoporphyrin IX Chromium (Vendor 2)],Results,additive concentration 1.25 uM,Improvement in % Hb
same,Results,additive concentration 5 uM,Improvement in % Hb
O=c1c(-c2ccc(O)cc2)coc2cc(O)ccc12 [Daidzein],Results,additive concentration 0.01 mM,No Improvement
same,Results,additive concentration 0.1 mM,No Improvement
same,Results,additive concentration 1 mM,No Improvement
c1c[nH]cn1 [Imidazole],Results,additive concentration 25 uM,No Improvement
same,Results,additive concentration 0.5 mM,No Improvement
N[C@@H](Cc1c[nH]cn1)C(=O)O [Histidine],Results,additive concentration 0.0028 mM,No Improvement
same,Results,additive concentration 0.0228 mM,No Improvement
same,Results,additive concentration 0.228 mM,No Improvement
NO [Hydroxylamine],Results,additive concentration 25 uM,No Improvement
same,Results,additive concentration 0.5 mM,No Improvement
O=P(O)(O)CN(CP(=O)(O)O)CP(=O)(O)O [ATMP],Results,additive concentration 0.02 mM,No Improvement
same,Results,additive concentration 0.2 mM,No Improvement
same,Results,additive concentration 2 mM,No Improvement
N[C@@H](CS)C(=O)O [Cysteine],Results,Additive Concentration 0.1 uM,No Improvement
same,Results,Additive Concentration 1 uM,No Improvement
same,Results,additive concentration 5 uM,No Improvement
same,Results,additive concentration 0.01 mM,No Improvement
same,Results,additive concentration 0.1 mM,No Improvement
same,Results,additive concentration 1 mM,No Improvement
same,Results,additive concentration 10 mM,No Improvement
Dextran Sulphate,Results,Additive Concentration 1 uM,No Improvement
same,Results,additive concentration 0.2 uM,No Improvement
same,Results,additive concentration 2 uM,No Improvement
same,Results,additive concentration 0.5 mM,No Improvement
OC[C@H]1OC(O)[C@H](O)[C@@H](O)[C@@H]1O (stereo partly shown) [Glucose],Results,additive concentration 72 uM,No Improvement
same,Results,additive concentration 720 uM,No Improvement
"O=C(/C=C/C(=O)Oc1c(Br)cc(Br)cc1C(=O)O)Oc1c(Br)cc(Br)cc1C(=O)O [Bis(3,5-dibromosalilcyl)fumarate]",Results,additive concentration 5 uM,No Improvement
same,Results,additive concentration 10 uM,No Improvement
same,Results,additive concentration 100 uM,No Improvement
C=CC1=C(C)c2cc3[n-]c(cc4nc(cc5[n-]c(cc1n2)c(C)c5C=C)C(C)=C4CCC(=O)O)c(CCC(=O)O)c3C.[Cl-].[Co+3] [Protoporphyrin IX Cobalt (Vendor 1)],Results,additive concentration 1.25 uM,Improvement in % Hb
same,Results,additive concentration 5 uM,Improvement in % Hb
Deferoxamine Mesylate Salt,Results,additive concentration 10 uM,No Improvement
same,Results,additive concentration 100 uM,No Improvement
same,Results,additive concentration 1 mM,No Improvement
same,Results,additive concentration 5 mM,No Improvement
NCC(=O)O [Glycine (no sample)],Results,,No improvement
C=CC1=C(C)c2cc3[n-]c(cc4[n-]c(cc5nc(cc1n2)C(C)=C5C=C)c(C)c4CCC(=O)O)c(CCC(=O)O)c3C.O.[Fe+2] [Hematin],Results,additive concentration 6 uM,Improvement in % Hb
Heparin,Results,additive concentration 25 uM,No Improvement
same,Results,additive concentration 250 uM,No Improvement
C=CC1=C(C)c2cc3[n-]c(cc4nc(cc5[n-]c(cc1n2)c(C)c5C=C)C(C)=C4CCC(=O)O)c(CCC(=O)O)c3C.[Cl-].[Co+3] [Protoporphyrin IX Cobalt (Vendor 3)],Results,additive concentration 1.25 uM,Improvement in % Hb
same,Results,additive concentration 5 uM,Improvement in % Hb
CCCCn1cc[n+](C)c1.[Cl-] [1-Butyl-3-methylimidazoium Chloride],Results,additive concentration 0.01 mM,No Improvement
same,Results,additive concentration 0.1 mM,No Improvement
same,Results,additive concentration 1 mM,No Improvement
CC(O)CO (stereo not shown) [Propylene Glycol],Results,Additive Concentration 0.10%,No Improvement
same,Results,Additive Concentration 0.50%,No Improvement
same,Results,Additive Concentration 1%,No Improvement
C1N2CN3CN1CN(C2)C3 [Hexamethylenetetramine],Results,additive concentration 14 mM,No Improvement
same,Results,additive concentration 140 mM,No Improvement
same,Results,additive concentration 500 mM,No Improvement
O[C@H](CS)[C@H](O)CS (racemic) [Dithiothreitol],Results,Additive Concentration 1 uM,No Improvement
same,Results,additive concentration 10 uM,No Improvement
same,Results,additive concentration 0.1 mM,No Improvement
same,Results,additive concentration 1 mM,No Improvement
C=CCn1cc[n+](C)c1.[Cl-] [1-Allyl-3-methylimidazolium Chloride],Results,additive concentration 0.01 mM,No Improvement
same,Results,additive concentration 0.1 mM,No Improvement
same,Results,additive concentration 1 mM,No Improvement
CC(C(=O)[O-])N(CC(=O)[O-])CC(=O)[O-].O.[Na+].[Na+].[Na+] (stereo not shown),Results,additive concentration 0.1 mM,No Improvement
same,Results,additive concentration 1 mM,No Improvement
same,Results,additive concentration 10 mM,No Improvement
C=CC1=C(C)c2cc3[n-]c(cc4nc(cc5[n-]c(cc1n2)c(C)c5C=C)C(C)=C4CCC(=O)O)c(CCC(=O)O)c3C.[Cl-].[Fe+3] [Hemin (H2O:NaOH)],Results,additive concentration 0.00005%,Improvement in % Hb
same,Results,"additive concentration 0.00005%, pH 6.5",Improvement in % Hb
same,Results,additive concentration 0.00009%,Improvement in % Hb
same,Results,"additive concentration 0.00009%, pH 6.5",Improvement in % Hb
same,Results,additive concentration 0.0003%,Improvement in % Hb
same,Results,additive concentration 0.003%,Improvement in % Hb
same,Results,"additive concentration 0.003%, pH 6.5",Improvement in % Hb
same,Results,additive concentration […],Improvement in % Hb
same,Results,"additive concentration […], pH 6.5",Improvement in % Hb
O=C(O)CCCCC1CCSS1 (racemic) [(±)-α-Lipoic acid],Results,additive concentration […],No Improvement
[F-].[Na+] [Sodium Fluoride],Results,additive concentration 85 uM,No Improvement
same,Results,additive concentration 850 uM,No Improvement
N[C@@H](CCC(=O)N[C@@H](CS)C(=O)NCC(=O)O)C(=O)O [Glutathione],Results,additive concentration 10 uM,No Improvement
same,Results,additive concentration 100 uM,No Improvement
same,Results,additive concentration 1 mM,No Improvement
same,Results,additive concentration 3 mM,No Improvement
O=C(O)CCP(CCC(=O)O)CCC(=O)O [TCEP],Results,additive concentration 0.005 mM,No Improvement
same,Results,additive concentration 0.01 mM,No Improvement
same,Results,additive concentration 0.1 mM,No Improvement
same,Results,additive concentration 250 uM,No Improvement
same,Results,additive concentration 500 uM,No Improvement
same,Results,additive concentration 750 uM,No Improvement
same,Results,additive concentration 1 mM,No Improvement
O=S(=O)([O-])CS(=O)(=O)[O-].[K+].[K+] [Methanedisulfonic acid dipotassium salt],Results,additive concentration 10.69 mM,No Improvement
O=C([O-])CC[C@@H](C(=O)[O-])N(CC(=O)[O-])CC(=O)[O-].[Na+].[Na+].[Na+].[Na+],Results,Additive Concentration 0.1 uM,No Improvement
same,Results,Additive Concentration 1 uM,No Improvement
same,Results,additive concentration 5 uM,No Improvement
same,Results,additive concentration 0.01 mM,No Improvement
same,Results,additive concentration 0.1 mM,No Improvement
same,Results,additive concentration 1 mM,No Improvement
same,Results,additive concentration 10 mM,No Improvement
O=C(O)CC(NC(CC(=O)O)C(=O)O)C(=O)O (stereo not shown) [Iminodisuccinic acid],Results,additive concentration 10 mM,No Improvement
C=CC1=C(C)/C(=C/C2=NC(=C\c3[nH]c(/C=C4\NC(=O)C(C)=C4C=C)c(C)c3CCC(=O)O)/C(CCC(=O)O)=C2C)NC1=O [Biliverdin],Results,additive concentration 0.00003%,No Improvement
same,Results,additive concentration 0.00030%,No Improvement
same,Results,additive concentration 0.00300%,No Improvement
same,Results,additive concentration 0.03000%,No Improvement
NC(N)=O [Urea],Results,additive concentration 25 uM,No Improvement
same,Results,additive concentration 250 uM,No Improvement
same,Results,additive concentration 500 uM,No Improvement
same,Results,additive concentration 5 mM,No Improvement
same,Results,additive concentration 50 mM,No Improvement
same,Results,additive concentration 100 mM,No Improvement
O=C(O)[C@@H](COP(=O)(O)O)OP(=O)(O)O [Diphosphoglycerate (DPG)],Results,additive concentration 0.0005 mM,No Improvement
same,Results,additive concentration 0.5 uM,No Improvement
same,Results,additive concentration 0.002 mM,No Improvement
same,Results,additive concentration 5 uM,No Improvement
same,Results,additive concentration 50 uM,No Improvement
same,Results,additive concentration 1 mM,No Improvement
O=c1[nH]c(=O)c2[nH]c(=O)[nH]c2[nH]1 [Uric Acid],Results,additive concentration 0.6 uM,No Improvement
same,Results,additive concentration 6 uM,No Improvement
same,Results,additive concentration 60 uM,No Improvement
O=S([O-])([O-])=S.[Na+].[Na+] [Sodium Thiosulfate],Results,,No Improvement
C=CC1=C(C)c2cc3[n-]c(cc4nc(cc5[n-]c(cc1n2)c(C)c5C=C)C(C)=C4CCC(=O)O)c(CCC(=O)O)c3C.[Cl-].[Cr+3] [Protoporphyrin IX Chromium (Vendor 1)],Results,additive concentration 1.25 uM,Improvement in % Hb
same,Results,additive concentration 5 uM,Improvement in % Hb
O=C([O-])CN(CCN(CC(=O)[O-])CC(=O)O)CC(=O)O.[Na+].[Na+] [EDTA: Disodium Salt],Results,additive concentration 5 mM,No Improvement
same,Results,additive concentration 10 mM,No Improvement
same,Results,additive concentration 30 mM,No Improvement
CC1=NCC[C@@H](C(=O)O)N1 [Ectoine],Results,additive concentration 0.718 mM,No Improvement
same,Results,additive concentration 5 mM,No Improvement
"O.O=c1cc(-c2ccccc2)oc2c(O)c(O)ccc12 [7,8 dihydroxyflavone hydrate]",Results,additive concentration 0.01 mM,No Improvement
same,Results,additive concentration 0.1 mM,No improvement
same,Results,additive concentration 1 mM,No Improvement
OC[C@H]1O[C@H](OC[C@H]2O[C@H](O[C@]3(CO)O[C@H](CO)[C@@H](O)[C@@H]3O)[C@H](O)[C@@H](O)[C@@H]2O)[C@H](O)[C@@H](O)[C@H]1O [Raffinose],Results,additive concentration 5 uM,No Improvement
same,Results,additive concentration 50 uM,No Improvement
same,Results,additive concentration 5 mM,No Improvement
same,Results,additive concentration 24 mM,No improvement
O=S(=O)([O-])CCCS(=O)(=O)[O-].[Na+].[Na+] [Propanedisulfonic acid disodium salt],Results,additive concentration 0.4 mM,No Improvement
same,Results,additive concentration 4 mM,No Improvement
same,Results,additive concentration 40 mM,No Improvement
C=CC1=C(C)c2cc3[n-]c(cc4nc(cc5[n-]c(cc1n2)c(C)c5C=C)C(C)=C4CCC(=O)O)c(CCC(=O)O)c3C.[Cl-].[Co+3] [Protoporphyrin IX Cobalt (Vendor 2)],Results,additive concentration 1.25 uM,Improvement in % Hb
same,Results,additive concentration 5 uM,Improvement in % Hb
